Test results: patent US20130137701A1, “COMBINATION” (priority 2010, published 2013)
Like-named read-outs stand apart in the source and are kept apart here.

Assays:
BT-474 = experiment: Cell growth inhibition assay (Cell Titer Glo); type: cell-based, Human; conditions: BT-474, Breast, HER2+, PIK3CA K111N, 3 days, read-out: Single Agent (IC50)
Method: (§1) All cells were cultured without lapatinib for a minimum of 72 hours prior to cell plating. Cells were assayed in a 96-well tissue culture plate (NUNC 136102) of RPMI medium containing 10
(§2) % FBS for all cells at 2,000 cells per well except KPL4, which were plated in DMEM containing 5% FBS at 500 cells per well. […] Cells were incubated in the presence of compounds for 3 days. ATP levels were determined by adding Cell Titer Glo® (Promega) according to the manufacturer's protocol. Briefly, Cell Titer Glo® was added each plate, incubated for 20 minutes then luminescent signal was read on the SpectraMax L plate reader with a 0.5 sec integration time.
(§3) Inhibition of cell growth was estimated after treatment with compound or combination of compounds for three days and comparing the signal to cells treated with vehicle (DMSO). Cell growth was calculated relative to vehicle (DMSO) treated control wells. Concentration of compound that inhibits 50% of control cell growth (IC50) was interpolated using nonlinear regression with the equation, y=(A+(B−A)/(1+(C/x)̂D)))), where A is the minimum response (ymin), B is the maximum response (ymax), C is the inflection point of the curve (EC50) and D is the Hill coefficient. […]

HCC1937 = experiment: Cell growth inhibition assay (Cell Titer Glo); type: cell-based, Human; conditions: HCC1937, Breast, HER−, PIK3CA WT; 3 days; read-out: Single Agent (IC50)
Method: as §1, §2, §3

HCC202 = experiment: Cell growth inhibition assay (Cell Titer Glo); type: cell-based, Human; conditions: HCC202, Breast, HER2+, PIK3CA E545K, 3 days; for IC50: read-out: Single Agent (IC50)
Method: as §1, §2, §3

MDA-MB-175-VII = experiment: Cell growth inhibition assay (Cell Titer Glo); type: cell-based, Human; conditions: Breast, HER−, PIK3CA WT, 3 days, read-out: Single Agent (IC50)
Method: as §1, §2, §3

MDA-MB-361 = experiment: Cell growth inhibition assay (Cell Titer Glo); type: cell-based, Human; conditions: MDA-MB-361 (resistant line), Breast, HER2+, PIK3CA E545K, 3 days; for IC50: Homo sapiens, 72 h, read-out: Single Agent (IC50)
Method: as §1, §2, §3

MDA-MB-453 = experiment: Cell growth inhibition assay (Cell Titer Glo); type: cell-based, Human; conditions: MDA-MB-453, Breast, HER2+, PIK3CA H1047R, 3 days; for IC50: Homo sapiens, 72 h, read-out: Single Agent (IC50)
Method: as §1, §2, §3

SK-BR-3 = experiment: Cell growth inhibition assay (Cell Titer Glo); type: cell-based, Human; conditions: SK-BR-3, Breast, HER2+, PIK3CA WT, 3 days, read-out: Single Agent (IC50)
Method: as §1, §2, §3

UACC893 = experiment: Cell growth inhibition assay (Cell Titer Glo); type: cell-based, Human; conditions: UACC893, Breast, HER2+, PIK3CA H1047R, 3 days, read-out: Single Agent (IC50)
Method: as §1, §2, §3

BT-474-J4 = experiment: Cell growth inhibition assay (Cell Titer Glo); type: cell-based; conditions: Homo sapiens, 72 h, BT-474-J4 (resistant line), Breast, HER2+, PIK3CA K111N; 3 days; read-out: Single Agent (IC50)
Method: (§4) JIMT-1 is a line derived from a patient clinically resistant to trastuzumab (Herceptin®). SK-BR-3-W13 is a single cell clone isolated by a cloning cylinder after a single treatment of SK-BR-3 cells with 0.5 μM lapatinib. BT-474-J4 is a single cell clone derived from a culture of BT-474 cells that were selected to grow in lapatinib to a concentration of 3 μM.
as §1, §2, §3

SK-BR-3-W13 = experiment: Cell growth inhibition assay (Cell Titer Glo); type: cell-based; conditions: Homo sapiens, 72 h; SK-BR-3-W13 (resistant line), Breast, HER2+, PIK3CA WT; 3 days; read-out: Single Agent (IC50)
Method: as §4, §1, §2, §3

JIMT-1 = experiment: Cell growth inhibition assay (Cell Titer Glo); type: cell-based, Human; conditions: JIMT-1 (resistant line), Breast, HER2+, PIK3CA WT, 3 days, read-out: Single Agent (IC50)
Method: as §4, §1, §2, §3

[1] = system: caspase 3/7 activity in BT474 cells; experiment: Cell apoptosis assay, caspase-3/7 activation (Caspase Glo 3/7); type: cell-based, Human; conditions: 24 h post treatment
Method: as §4
(§5) For investigation of the induction of apoptosis, cells were plated at 5,000 cells per well in a 96-well tissue culture plate and allowed to attach for approximately 24 hours. Cells were then treated with compounds as described above. 24 hours after compound treatment, the levels of active caspase 3 and caspase 7 were determined with the Caspase Glo™ 3/7 (Promega, cat G8093) according to the instructions provided by the manufacturer. 48 hours after treatment with compound, levels of apoptosis were estimated using the Roche Cell Death ELISA (Cat. No. 11 774 425 001) following the instructions provided by the manufacturer.

[2] = system: caspase 3/7 activity in HCC1419 cells; experiment: as above; type: cell-based, Human; conditions: 24 h post treatment
Method: as §4, §5

[3] = system: caspase 3/7 activity in UACC893 cells; experiment: as above; type: cell-based, Human; conditions: 24 h post treatment
Method: as §4, §5

CHL-1 = experiment: Cell growth inhibition assay (Cell Titer Glo); type: cell-based, Human; conditions: CHL-1, Melanoma, HER−, PIK3CA WT, 3 days, read-out: Single Agent (IC50)
Method: as §1, §2, §3

KPL4 = experiment: Cell growth inhibition assay (Cell Titer Glo); type: cell-based, Human; conditions: KPL4, Breast, HER2+, PIK3CA H1047R, 3 days, read-out: Single Agent (IC50)
Method: as §1, §2, §3

ZR-75-1 = experiment: Cell growth inhibition assay (Cell Titer Glo); type: cell-based, Human; conditions: ZR-75-1, Breast, HER−, PIK3CA WT, 3 days, read-out: Single Agent (IC50)
Method: as §1, §2, §3

CS(=O)(=O)CCNCc1ccc(-c2ccc3ncnc(Nc4ccc(OCc5cccc(F)c5)c(Cl)c4)c3c2)o1 [Compound A, N-{3-Chloro-4-[(3-fluorobenzyl)oxy]phenyl}-6-[5-({[2-(methanesulphonyl)ethyl]amino}methyl)-2-furyl]-4-quinazolinamine ditosylate monohydrate]
IC50 (BT-474; ditosylate monohydrate): 241 nM | IC50 (BT-474; Homo sapiens, BT-474, 72 h): < 200 nM | IC50 (HCC1937): > 1000 nM | Single Agent (IC50, μM) (HCC202): less sensitive | IC50 (HCC202; Homo sapiens, HCC202, 72 h): 4630 nM | IC50 (MDA-MB-175-VII; ditosylate monohydrate): 106 nM | IC50 (MDA-MB-175-VII; Homo sapiens, 72 h): < 200 nM | IC50 (MDA-MB-361): > 10000 nM | Single Agent (IC50, μM) (MDA-MB-361): less sensitive | IC50 (MDA-MB-453): 2470 nM | Single Agent (IC50, μM) (MDA-MB-453): less sensitive | IC50 (SK-BR-3; Homo sapiens, SK-BR-3, 72 h): < 200 nM | IC50 (SK-BR-3; ditosylate monohydrate): 312 nM | IC50 (UACC893; Homo sapiens, UACC-893, 72 h): < 1000 nM | IC50 (UACC893; ditosylate monohydrate): 1070 nM | IC50 (BT-474-J4): 3540 nM | IC50 (SK-BR-3-W13): 7110 nM | IC50 (JIMT-1; Homo sapiens, JIMT-1, 72 h): 9620 nM | caspase 3/7 activity [1]: increased caspase 3/7 activity | caspase 3/7 activity [2]: slight increase in caspase 3/7 activity | caspase 3/7 activity [3]: increased caspase 3/7 activity

COc1ncc(-c2ccc3nccc(-c4ccnnc4)c3c2)cc1NS(=O)(=O)c1ccc(F)cc1F [Compound B, 2,4-difluoro-N-{2-(methyloxy)-5-[4-(4-pyridazinyl)-6-quinolinyl]-3-pyridinyl}benzenesulfonamide]
IC50 (BT-474): 28 nM | IC50 (BT-474; Homo sapiens, BT-474, 72 h): < 50 nM | IC50 (CHL-1): 38 nM | IC50 (CHL-1; Homo sapiens, CHL-1, 72 h): < 40 nM | IC50 (HCC202): 206 nM | IC50 (HCC202; Homo sapiens, HCC202, 72 h): 200 nM | IC50 (KPL4; Homo sapiens, KPL4, 72 h): < 5 nM | IC50 (KPL4): 3 nM | IC50 (MDA-MB-361): 9 nM | IC50 (MDA-MB-453): 15 nM | IC50 (UACC893; Homo sapiens, UACC-893, 72 h): < 5 nM | IC50 (UACC893): 5 nM | IC50 (ZR-75-1; Homo sapiens, ZR-75-1, 72 h): 10 to 1300 nM | IC50 (ZR-75-1): 12 nM | IC50 (SK-BR-3-W13): 167 nM | IC50 (JIMT-1; Homo sapiens, JIMT-1, 72 h): < 30 nM | IC50 (JIMT-1): 28 nM | caspase 3/7 activity [1]: increased caspase 3/7 activity | caspase 3/7 activity [2]: slight increase in caspase 3/7 activity | caspase 3/7 activity [3]: increased caspase 3/7 activity
